PubChem BioAssay (NCI)
“And” between values parts separate entries of the source, which are not always exact repeats. Equal values may be shown once.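 Interpolation was linear, between the two tested concentrations surrounding the appropriate level; five concentrations were tested over 48 hours in 96-well plates. GI50 is the concentration that inhibits growth by half. TGI: total growth inhibition.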

How the values were obtained:
Assay in all cases: DTP human tumour cell line panel, 48 h
[1] = system: CAKI-1 renal
[2] = system: HCT-15 colon
[3] = system: HT29 colon
[4] = system: NCI-H226 lung
[5] = system: SK-MEL-28 melanoma
[6] = system: SK-OV-3 ovarian
[7] = system: SR leukemia
[8] = system: SF-295 CNS
[9] = system: SK-MEL-2 melanoma
[10] = system: MALME-3M melanoma

Row | SMILES | TGI [1] | TGI [2] | TGI [3] | GI50 [4] | TGI [4] | TGI [5] | TGI [6] | GI50 [7] | TGI [7] | GI50 [1] | GI50 [2] | GI50 [3] | GI50 [8] | TGI [8] | GI50 [9] | TGI [9] | GI50 [5] | GI50 [6] | GI50 [10] | TGI [10]
1 | Cc1c2cc[n+](C)cc2c(C)c2c1[nH]c1ccc(Oc3ccccc3)cc12 | > 100 µM | > 100 µM | 21.2 µM and 29 µM | 0.797 µM | 28 µM and 8.75 µM | > 27.3 µM and 21.3 µM | > 73.5 µM and 21.4 µM | 4.39 µM and 1.87 µM | > 71.9 µM and 8.31 µM | – | – | – | – | – | – | – | – | – | – | –
2 | COC(=O)C(NC(=O)c1ccccc1)c1ccc(OC)c(I)c1 (stereo not drawn) | > 100 µM | > 100 µM | > 100 µM | > 100 µM | > 100 µM | > 100 µM | > 100 µM | 35.2 µM | > 100 µM | 77.6 µM | 35.5 µM | 49 µM | 66.4 µM | > 100 µM | > 100 µM | > 100 µM | 76.4 µM | 78.2 µM | – | –
3 | O=C(/C=C/N1CCN(c2cccc(Cl)c2)CC1)c1ccc(Cl)cc1 | 71.1 µM | > 100 µM | > 100 µM | – | – | 91.2 µM | > 100 µM | 26.1 µM | 59.3 µM | 28.8 µM | 31 µM | 32.8 µM | 18.6 µM | 54.2 µM | 35.3 µM | > 100 µM | 39.9 µM | 50.9 µM | 4.89 µM | 26.4 µM
4 | CN1C/C(=C\c2ccco2)c2nc(N)nc(-c3ccco3)c2C1 | > 100 µM | > 100 µM | > 100 µM | – | > 100 µM | > 100 µM | > 100 µM | – | – | – | – | – | – | > 100 µM | – | > 100 µM | – | – | – | > 100 µM
5 | O=C1NC2(CCCCC2)C2=C1CCCCC2 | > 100 µM | > 100 µM | > 100 µM | – | – | > 100 µM | > 100 µM | – | > 100 µM | – | – | – | – | > 100 µM | – | > 100 µM | – | – | – | > 100 µM
6 | CC(C)c1nc(Cl)c(Cl)c(Cl)n1 | 11.8 µM | 17.7 µM | 17.9 µM | – | 38.9 µM | 40.5 µM | 37.9 µM | – | – | – | – | – | – | 29 µM | – | – | – | – | – | 19 µM
7 | COC(=O)C1=C(C)N(NC(=O)Nc2ccccc2)C2(N)N(NC(=O)Nc3ccccc3)C(C)=C(C(=O)OC)C12C(=O)OC (stereo not drawn) | 82.9 µM | > 100 µM | > 100 µM | – | > 100 µM | > 100 µM | > 100 µM | – | – | – | – | – | – | – | – | > 100 µM | – | – | – | > 100 µM
8 | CCCCCCCCCCCCCCCC(=O)NCC(OCC)OCC | – | > 100 µM | > 100 µM | – | > 100 µM | > 100 µM | > 100 µM | – | – | – | – | – | – | > 100 µM | – | > 100 µM | – | – | – | > 100 µM
9 | C=CCCC1(CCP(=O)(c2ccccc2)c2ccccc2)OCCO1 | – | > 100 µM | > 100 µM | – | – | > 100 µM | – | – | > 100 µM | – | – | – | – | > 100 µM | – | > 100 µM | – | – | – | > 100 µM
10 | Cc1cc(C2(c3cc(C)c(O)c4ncccc34)OC(=O)c3ccccc32)c2cccnc2c1O | 1.07 µM | – | > 100 µM | – | – | > 100 µM | 21.9 µM | – | – | – | – | 0.106 µM | 0.012 µM | 21.3 µM | 0.117 µM | > 100 µM | > 100 µM | – | – | > 100 µM
11 | CC1=C2[C@@H](c3ccccc3)C3C=CC2(C=C3C(F)(F)F)N(C(=O)NC2CCCCC2)C1=O (stereo partly drawn) | > 100 µM | > 100 µM | > 100 µM | – | – | > 100 µM | > 100 µM | – | 66.8 µM | – | – | – | – | > 100 µM | – | – | – | – | – | > 100 µM
12 | CC(=O)OCc1cc2c(s1)C(=O)c1sccc1C2=O | 3.24 µM | 0.303 µM | 1.43 µM | – | 1.24 µM | 0.0721 µM | 3.3 µM | – | – | – | – | – | – | 0.162 µM | – | 0.249 µM | – | – | – | 0.659 µM
13 | Nc1nc(N)c(-c2ccccc2)c(C(=O)Nc2nccs2)n1 | > 100 µM | > 100 µM | > 100 µM | – | > 100 µM | > 100 µM | > 100 µM | – | – | – | – | – | – | > 100 µM | – | > 100 µM | – | – | – | > 100 µM
14 | COc1ccc(Cl)cc1Nc1nc(C(F)(F)F)ccc1C(=O)N/N=C/c1ccc(Cl)cc1 | 29.7 µM | > 100 µM | > 100 µM | 4.18 µM | > 100 µM | > 100 µM | 22.9 µM | – | – | 5.37 µM | 2.41 µM | 7.4 µM | 2.09 µM | 12.1 µM | 0.954 µM | > 100 µM | 74 µM | 1.95 µM | 1.36 µM | 9.2 µM
15 | O=C(O)C12C3C4C1C1C2C3C41I (stereo not drawn) | > 100 µM | > 100 µM | > 100 µM | – | > 100 µM | > 100 µM | > 100 µM | – | – | – | – | – | – | > 100 µM | – | > 100 µM | – | – | – | > 100 µM
